Measured values as given in ChEMBL document CHEMBL1201862, “PubChem BioAssay data set” (2004).
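Cells were grown in 96-well plates and exposed to each compound for 48 hours at five concentrations; endpoints were interpolated linearly between bracketing concentrations, or set to the highest concentration if not reached. Here, GI50 denotes the concentration required for 50% inhibition of growth.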 The source made the active and inactive calls. Cut-off read from the data, not from the text of the source: active = GI50 up to about 1.1 µM and inactive = higher.

Experiments:
Assay in all cases: growth of human tumour cells (NCI), 48 h
TK-10 = system: TK-10
COLO 205 = system: COLO 205
RXF 393 = system: RXF 393
NCI-H522 = system: NCI-H522
Malme-3M = system: Malme-3M
SF-539 = system: SF-539
SK-MEL-5 = system: SK-MEL-5
DU-145 = system: DU-145
BT-549 = system: BT-549
T47D = system: T47D
NCI/ADR-RES = system: NCI/ADR-RES
SF-295 = system: SF-295
SK-OV-3 = system: SK-OV-3
MDA-N = system: MDA-N
NCI-H23 = system: NCI-H23
Hs-578T = system: Hs-578T
UACC-62 = system: UACC-62
SF-268 = system: SF-268
OVCAR-8 = system: OVCAR-8
U-251 = system: U-251
UO-31 = system: UO-31
PC-3 = system: PC-3
A549 = system: A549
ACHN = system: ACHN
MDA-MB-435 = system: MDA-MB-435
SK-MEL-28 = system: SK-MEL-28
HOP-62 = system: HOP-62
SW-620 = system: SW-620
EKVX = system: EKVX
SNB-75 = system: SNB-75
MDA-MB-231 = system: MDA-MB-231
M14 = system: M14
HCT-116 = system: HCT-116
IGROV-1 = system: IGROV-1
MOLT-4 = system: MOLT-4
CCRF-CEM = system: CCRF-CEM
OVCAR-5 = system: OVCAR-5
HT-29 = system: HT-29
SK-MEL-2 = system: SK-MEL-2
SNB-19 = system: SNB-19
KM12 = system: KM12
A498 = system: A498
OVCAR-4 = system: OVCAR-4
HCT-15 = system: HCT-15
SN12C = system: SN12C
CAKI-1 = system: CAKI-1
LOX IMVI = system: LOX IMVI
HL-60 = system: HL-60
786-0 = system: 786-0
UACC-257 = system: UACC-257
NCI-H226 = system: NCI-H226
RPMI-8226 = system: RPMI-8226
HOP-92 = system: HOP-92
K562 = system: K562
SR = system: SR
NCI-H460 = system: NCI-H460
HCC 2998 = system: HCC 2998
OVCAR-3 = system: OVCAR-3

In the case of `COC(=O)CN1C(=O)C2(C(=O)OC)OC1(c1ccc([N+](=O)[O-])cc1)C1C(=O)N(c3ccccc3)C(=O)C12` (stereo not given), the GI50 (TK-10) is reported as > 100 µM (inactive), the GI50 (COLO 205) is reported as > 100 µM (inactive) and the GI50 (RXF 393) is reported as > 100 µM (inactive). The GI50 (NCI-H522) was > 100 µM (inactive), the GI50 (Malme-3M) was > 100 µM (inactive) and the GI50 (SF-539) was > 100 µM (inactive). The GI50 (SK-MEL-5) was > 100 µM (inactive), the GI50 (DU-145) was > 100 µM (inactive) and the GI50 (BT-549) was > 100 µM (inactive). For the same molecule, the GI50 (T47D) was > 100 µM (inactive), the GI50 (NCI/ADR-RES) was > 100 µM (inactive) and the GI50 (SF-295) was > 100 µM (inactive). The GI50 (SK-OV-3) was > 100 µM (inactive), the GI50 (MDA-N) was > 100 µM (inactive) and the GI50 (NCI-H23) was > 100 µM (inactive). The GI50 (Hs-578T) was > 100 µM (inactive), the GI50 (UACC-62) was > 100 µM (inactive) and the GI50 (SF-268) was > 100 µM (inactive). For the same molecule, the GI50 (OVCAR-8) was > 100 µM (inactive), the GI50 (U-251) was > 100 µM (inactive) and the GI50 (UO-31) was > 100 µM (inactive). For the same molecule, the GI50 (PC-3) was > 100 µM (inactive), the GI50 (A549) was > 100 µM (inactive) and the GI50 (ACHN) was > 100 µM (inactive). The GI50 (MDA-MB-435) was > 100 µM (inactive), the GI50 (SK-MEL-28) was > 100 µM (inactive) and the GI50 (HOP-62) was > 100 µM (inactive). The GI50 (SW-620) was > 100 µM (inactive), the GI50 (EKVX) was > 100 µM (inactive) and the GI50 (SNB-75) was > 100 µM (inactive). For the same molecule, the GI50 (MDA-MB-231) was > 100 µM (inactive), the GI50 (M14) was > 100 µM (inactive) and the GI50 (HCT-116) was > 100 µM (inactive). For the same molecule, the GI50 (IGROV-1) was > 100 µM (inactive), the GI50 (MOLT-4) was > 100 µM (inactive) and the GI50 (CCRF-CEM) was > 100 µM (inactive). For the same molecule, the GI50 (OVCAR-5) was > 100 µM (inactive), the GI50 (HT-29) was > 100 µM (inactive) and the GI50 (SK-MEL-2) was > 100 µM (inactive). For the same molecule, the GI50 (SNB-19) was > 100 µM (inactive), the GI50 (KM12) was > 100 µM (inactive) and the GI50 (A498) was > 100 µM (inactive). The GI50 (OVCAR-4) was > 100 µM (inactive), the GI50 (HCT-15) was greater than 100 µM and the GI50 (SN12C) was > 100 µM (inactive). The GI50 (CAKI-1) was > 100 µM (inactive), the GI50 (LOX IMVI) was > 100 µM (inactive) and the GI50 (HL-60) was > 100 µM (inactive). The GI50 (786-0) was > 100 µM (inactive), the GI50 (UACC-257) was > 100 µM (inactive) and the GI50 (NCI-H226) was > 100 µM (inactive).

With `CN1CCN(c2ncc3c(n2)sc2c(=O)n(-c4ccccc4)cnc23)CC1` the GI50 (TK-10) was > 100 µM (inactive), the GI50 (COLO 205) was > 100 µM (inactive) and the GI50 (RXF 393) was > 100 µM (inactive). The GI50 (NCI-H522) was > 100 µM (inactive), the GI50 (Malme-3M) was > 100 µM (inactive) and the GI50 (SK-MEL-5) was > 100 µM (inactive). For the same molecule, the GI50 (RPMI-8226) was > 100 µM (inactive), the GI50 (HOP-92) was > 100 µM (inactive) and the GI50 (DU-145) was > 100 µM (inactive). The GI50 (BT-549) was > 100 µM (inactive), the GI50 (T47D) was > 100 µM (inactive) and the GI50 (NCI/ADR-RES) was > 100 µM (inactive). For the same molecule, the GI50 (SF-295) was > 100 µM (inactive), the GI50 (SK-OV-3) was > 100 µM (inactive) and the GI50 (MDA-N) was > 100 µM (inactive). The GI50 (K562) was > 100 µM (inactive), the GI50 (NCI-H23) was > 100 µM (inactive) and the GI50 (Hs-578T) was > 100 µM (inactive). The GI50 (SR) was > 100 µM (inactive), the GI50 (UACC-62) was > 100 µM (inactive) and the GI50 (SF-268) was > 100 µM (inactive). The GI50 (OVCAR-8) was > 100 µM (inactive), the GI50 (U-251) was > 100 µM (inactive) and the GI50 (UO-31) was > 100 µM (inactive). For the same molecule, the GI50 (PC-3) was > 100 µM (inactive), the GI50 (A549) was > 100 µM (inactive) and the GI50 (ACHN) was > 100 µM (inactive). For the same molecule, the GI50 (MDA-MB-435) was > 100 µM (inactive), the GI50 (SK-MEL-28) was > 100 µM (inactive) and the GI50 (HOP-62) was > 100 µM (inactive). For the same molecule, the GI50 (NCI-H460) was > 100 µM (inactive), the GI50 (SW-620) was > 100 µM (inactive) and the GI50 (HCC 2998) was > 100 µM (inactive). The GI50 (SNB-75) was > 100 µM (inactive), the GI50 (MDA-MB-231) was > 100 µM (inactive) and the GI50 (M14) was > 100 µM (inactive). For the same molecule, the GI50 (OVCAR-3) was > 100 µM (inactive), the GI50 (HCT-116) was > 100 µM (inactive) and the GI50 (IGROV-1) was > 100 µM (inactive). The GI50 (MOLT-4) was > 100 µM (inactive), the GI50 (CCRF-CEM) was > 100 µM (inactive) and the GI50 (OVCAR-5) was > 100 µM (inactive). For the same molecule, the GI50 (HT-29) was > 100 µM (inactive), the GI50 (SK-MEL-2) was > 100 µM (inactive) and the GI50 (SNB-19) was > 100 µM (inactive). For the same molecule, the GI50 (KM12) was > 100 µM (inactive), the GI50 (A498) was > 100 µM (inactive) and the GI50 (OVCAR-4) was > 100 µM (inactive). The GI50 (HCT-15) was greater than 100 µM, the GI50 (SN12C) was > 100 µM (inactive) and the GI50 (CAKI-1) was > 100 µM (inactive). For the same molecule, the GI50 (LOX IMVI) was > 100 µM (inactive), the GI50 (786-0) was > 100 µM (inactive) and the GI50 (UACC-257) was > 100 µM (inactive). For the same molecule, the GI50 (NCI-H226) was > 100 µM (inactive).

With `COc1ccccc1/N=N/c1c(O)c(S(=O)(=O)O)cc2cc(S(=O)(=O)O)ccc12` the GI50 (TK-10) was > 100 µM (inactive), the GI50 (COLO 205) was > 100 µM (inactive) and the GI50 (RXF 393) was > 100 µM (inactive). The GI50 (NCI-H522) was > 100 µM (inactive), the GI50 (Malme-3M) was > 100 µM (inactive) and the GI50 (SK-MEL-5) was > 100 µM (inactive). For the same molecule, the GI50 (RPMI-8226) was > 100 µM (inactive), the GI50 (HOP-92) was > 100 µM (inactive) and the GI50 (DU-145) was > 100 µM (inactive). The GI50 (BT-549) was > 100 µM (inactive), the GI50 (T47D) was > 100 µM (inactive) and the GI50 (NCI/ADR-RES) was > 100 µM (inactive). The GI50 (SF-295) was > 100 µM (inactive), the GI50 (SK-OV-3) was > 100 µM (inactive) and the GI50 (MDA-N) was > 100 µM (inactive). The GI50 (K562) was > 100 µM (inactive), the GI50 (NCI-H23) was > 100 µM (inactive) and the GI50 (Hs-578T) was > 100 µM (inactive). For the same molecule, the GI50 (SR) was > 100 µM (inactive), the GI50 (UACC-62) was > 100 µM (inactive) and the GI50 (SF-268) was > 100 µM (inactive). The GI50 (OVCAR-8) was > 100 µM (inactive), the GI50 (U-251) was > 100 µM (inactive) and the GI50 (UO-31) was > 100 µM (inactive). For the same molecule, the GI50 (PC-3) was > 100 µM (inactive), the GI50 (A549) was > 100 µM (inactive) and the GI50 (ACHN) was > 100 µM (inactive). The GI50 (MDA-MB-435) was > 100 µM (inactive), the GI50 (SK-MEL-28) was > 100 µM (inactive) and the GI50 (HOP-62) was > 100 µM (inactive). The GI50 (SW-620) was > 100 µM (inactive), the GI50 (EKVX) was > 100 µM (inactive) and the GI50 (SNB-75) was > 100 µM (inactive). For the same molecule, the GI50 (MDA-MB-231) was > 100 µM (inactive), the GI50 (M14) was > 100 µM (inactive) and the GI50 (OVCAR-3) was > 100 µM (inactive). The GI50 (HCT-116) was > 100 µM (inactive), the GI50 (IGROV-1) was > 100 µM (inactive) and the GI50 (MOLT-4) was > 100 µM (inactive). For the same molecule, the GI50 (CCRF-CEM) was > 100 µM (inactive), the GI50 (OVCAR-5) was > 100 µM (inactive) and the GI50 (HT-29) was > 100 µM (inactive). The GI50 (SK-MEL-2) was 53.5 µM (inactive), the GI50 (SNB-19) was > 100 µM (inactive) and the GI50 (KM12) was > 100 µM (inactive). The GI50 (A498) was > 100 µM (inactive), the GI50 (OVCAR-4) was > 100 µM (inactive) and the GI50 (HCT-15) was greater than 100 µM. The GI50 (SN12C) was > 100 µM (inactive), the GI50 (CAKI-1) was > 100 µM (inactive) and the GI50 (LOX IMVI) was > 100 µM (inactive). The GI50 (786-0) was > 100 µM (inactive), the GI50 (UACC-257) was > 100 µM (inactive) and the GI50 (NCI-H226) was > 100 µM (inactive).
